Reference: patent publication US5488060A, “Substituted thiadiazoles, compositions containing them and their use as antimicrobial and marine antifouling agents” (The Dow Chemical Company, priority 1994, dated 1996)
Where two headings read alike, the source gives them in different places.

Assays:
Format in all cases: cell-based
[1] = tested on: Klebsiella pneumoniae (Kp); assay: Minimum inhibitory concentration (MIC) in nutrient agar, Klebsiella pneumoniae
Summary of the method: (§1)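 Bacteria were grown 24 h at 30° C in nutrient broth with shaking, then diluted to 10^8 CFU/mL. These suspensions were stamped onto dried nutrient agar plates, neutral (pH 6.8) and alkaline (pH 8.2), that held compound at final 500–1.0 ppm. The plates were incubated 48 h at 30° C.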

[2] = tested on: Saccharomyces cerevisiae (Sc); assay: Minimum inhibitory concentration (MIC) in malt yeast agar, Saccharomyces cerevisiae
Summary of the method: (§2)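 Malt yeast agar pH 5.5 + cpd (from 1% soln in acetone/water) at final 500–zero ppm, poured at 48 °C, dried 24 h. Inoculum: 7-day 30 °C slants suspended in saline/octylphenoxy polyethoxy ethanol, diluted 1:9, replicator-spotted. Incubated 30 °C; read 48 h yeast, 72 h fungi.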

[3] = tested on: Pseudomonas aeruginosa (PRD-10); assay: Minimum inhibitory concentration (MIC) in nutrient agar, Pseudomonas aeruginosa PRD-10
Summary of the method: as §1

[4] = tested on: Escherichia coli (Ec); assay: Minimum inhibitory concentration (MIC) in nutrient agar, Escherichia coli
Summary of the method: as §1

[5] = tested on: Bacillus subtilis (Bs); assay: Minimum inhibitory concentration (MIC) in nutrient agar, Bacillus subtilis
Summary of the method: as §1

[6] = tested on: Aspergillus niger (An); assay: Minimum inhibitory concentration (MIC) in malt yeast agar, Aspergillus niger
Summary of the method: (§3)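 Plates of pH 5.5 malt yeast agar carried test compound dispersed from a one percent acetone–water solution, final 500 to zero ppm. After diluted slant-culture suspensions were applied, plates were kept at 30 °C and examined at 72 h for fungi, 48 h for yeast.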

[7] = tested on: Candida albicans (Ca); assay: Minimum inhibitory concentration (MIC) in malt yeast agar, Candida albicans
Summary of the method: as §2

[8] = tested on: Fusarium oxysporum (Fo); assay: Minimum inhibitory concentration (MIC) in malt yeast agar, Fusarium oxysporum
Summary of the method: as §3

[9] = tested on: Proteus vulgaris (Pv); assay: Minimum inhibitory concentration (MIC) in nutrient agar, Proteus vulgaris
Summary of the method: as §1

[10] = tested on: Aureobasidium pullulan (Ap); assay: Minimum inhibitory concentration (MIC) in malt yeast agar, Aureobasidium pullulan
Summary of the method: as §3

[11] = tested on: Pseudomonas aeruginosa (Pa); assay: Minimum inhibitory concentration (MIC) in nutrient agar, Pseudomonas aeruginosa; settings: 30° C., 48 hours, read-out: Minimum Inhibitory Concentration, Pa
Summary of the method: as §1

[12] = tested on: Enterobacter aerogenes (Ea); assay: Minimum inhibitory concentration (MIC) in nutrient agar, Enterobacter aerogenes; settings: Klebsiella aerogenes
Summary of the method: as §1

[13] = tested on: Salmonella choleraesuis (Se); assay: Minimum inhibitory concentration (MIC) in nutrient agar, Salmonella choleraesuis; settings: Salmonella enterica
Summary of the method: as §1

[14] = tested on: Penicillium chrysogenum (Pc); assay: Minimum inhibitory concentration (MIC) in malt yeast agar, Penicillium chrysogenum
Summary of the method: as §3

[15] = tested on: Trichoderma viride (Tv); assay: Minimum inhibitory concentration (MIC) in malt yeast agar, Trichoderma viride
Summary of the method: as §3

[16] = tested on: Staphylococcus aureus (Sa); assay: Minimum inhibitory concentration (MIC) in nutrient agar, Staphylococcus aureus
Summary of the method: as §1

[17] = 48 h, pH 8.2, read-out: Minimum Inhibitory Concentration, Kp
[18] = pH 6.8, nutrient agar, 30° C., 48 hours, read-out: Minimum Inhibitory Concentration, Kp
[19] = 48 h, pH 6.8, read-out: Minimum Inhibitory Concentration, PRD
[20] = 48 h, pH 8.2, read-out: Minimum Inhibitory Concentration, PRD
[21] = 48 h, pH 8.2, read-out: Minimum Inhibitory Concentration, Ec
[22] = 48 h, pH 8.2, read-out: Minimum Inhibitory Concentration, Bs
[23] = pH 6.8, nutrient agar, 30° C., 48 hours, read-out: Minimum Inhibitory Concentration, Bs
[24] = 72 h, pH 5.5, read-out: Minimum Inhibitory Concentration, An
[25] = pH 5.5, malt yeast agar, 30° C., 48 hours for yeast, read-out: Minimum Inhibitory Concentration, Ca
[26] = 72 h, pH 5.5, read-out: Minimum Inhibitory Concentration, Fo
[27] = 48 h, pH 6.8, read-out: Minimum Inhibitory Concentration, Pv
[28] = 48 h, pH 8.2, read-out: Minimum Inhibitory Concentration, Pv
[29] = 48 h, pH 6.8, read-out: Minimum Inhibitory Concentration, Ea
[30] = 48 h, pH 8.2, read-out: Minimum Inhibitory Concentration, Ea
[31] = 48 h, pH 8.2, read-out: Minimum Inhibitory Concentration, SC
[32] = pH 6.8, nutrient agar, 30° C., 48 hours, read-out: Minimum Inhibitory Concentration, SC
[33] = 72 h, pH 5.5, read-out: Minimum Inhibitory Concentration, PC
[34] = 72 h, pH 5.5, read-out: Minimum Inhibitory Concentration, Tv
[35] = 48 h, pH 8.2, read-out: Minimum Inhibitory Concentration, Sa
[36] = pH 6.8, nutrient agar, 30° C., 48 hours, read-out: Minimum Inhibitory Concentration, Sa
[37] = pH 5.5, malt yeast agar, 30° C., 48 hours for yeast, read-out: Minimum Inhibitory Concentration, SC
[38] = 48 h, pH 6.8, read-out: Minimum Inhibitory Concentration, Ec
[39] = pH 8.2, nutrient agar, 30° C., 48 hours, read-out: Minimum Inhibitory Concentration, Bs
[40] = pH 5.5, malt yeast agar, 30° C., 72 hours for fungi, read-out: Minimum Inhibitory Concentration, An
[41] = 48 h, pH 5.5, read-out: Minimum Inhibitory Concentration, Ca
[42] = pH 5.5, malt yeast agar, 30° C., 72 hours for fungi, read-out: Minimum Inhibitory Concentration, Fo
[43] = pH 5.5, malt yeast agar, 30° C., read-out: Minimum Inhibitory Concentration, Ap
[44] = 48 h, pH 6.8, read-out: Minimum Inhibitory Concentration, SC
[45] = pH 5.5, malt yeast agar, 30° C., 72 hours for fungi, read-out: Minimum Inhibitory Concentration, PC
[46] = pH 8.2, nutrient agar, 30° C., 48 hours, read-out: Minimum Inhibitory Concentration, Ec
[47] = pH 8.2, nutrient agar, 30° C., 48 hours, read-out: Minimum Inhibitory Concentration, Sa
[48] = pH 8.2, nutrient agar, 30° C., 48 hours, read-out: Minimum Inhibitory Concentration, SC

Measured: MIC

N#CSc1nsnc1-c1ccccc1Cl [Example IV, 4-(2-Chlorophenyl)-3-thiocyanatol-1,2,5-thiadiazole]
250 µg/mL: [4]; pH 6.8, nutrient agar, 30° C., 48 hours, read-out: Minimum Inhibitory Concentration, Ec | [5]; [22]
100 µg/mL: [13]; [32]
> 500 µg/mL: [1]; [18] | [3]; [19] | [9]; [27] | [11]; pH 6.8, nutrient agar | [12]; [29]
2.5 µg/mL: [2]; 48 h, pH 5.5, read-out: Minimum Inhibitory Concentration, SC
5 µg/mL: [8]; [26] | [10]; pH 5.5, read-out: Minimum Inhibitory Concentration, Ap
25 µg/mL: [6]; [24] | [16]; [36]
500 µg/mL: [1]; [17] | [3]; [20] | [4]; [21] | [9]; [28] | [11]; pH 8.2, nutrient agar | [12]; [30] | [13]; [31] | [16]; [35]
< 10 µg/mL: [5]; [23] | [7]; [25]
10 µg/mL: [14]; [33] | [15]; [34]

N#CSc1nsnc1-c1cccs1 [Example XIV, 4-(2-Thiophene)-3-thiocyanato-1,2,5-thiadiazole]
100 µg/mL: [5]; [39] | [12]; pH 6.8, nutrient agar, 30° C., 48 hours, read-out: Minimum Inhibitory Concentration, Ea
< 10 µg/mL: [2]; [37] | [6]; [40] | [8]; [42] | [10]; [43] | [14]; [33] | [15]; [34]
25 µg/mL: [1]; [18] | [5]; [23] | [7]; [41] | [16]; [36]
50 µg/mL: [4]; [38] | [9]; pH 6.8, nutrient agar, 30° C., 48 hours, read-out: Minimum Inhibitory Concentration, Pv | [13]; [32]
500 µg/mL: [1]; [17] | [3]; [19] | [3]; [20] | [4]; [21] | [9]; [28] | [11]; pH 6.8, nutrient agar | [11]; pH 8.2, nutrient agar | [12]; [30] | [13]; [31] | [16]; [35]

COc1cccc(-c2nsnc2SCSC#N)c1 [Example XXII, 4-(3-Methoxyphenyl)-3-thiocyanatomethylthio-1,2,5-thiadiazole]
250 µg/mL: [7]; [41] | [15]; [34]
50 µg/mL: [6]; [24] | [8]; [26]
25 µg/mL: [5]; [22] | [14]; [45]
> 500 µg/mL: [1]; [17] | [3]; [20] | [9]; [28] | [11]; pH 8.2, nutrient agar | [12]; [30] | [13]; [31]
9 µg/mL: [2]; [37] | [5]; [23] | [10]; [43]
500 µg/mL: [1]; [18] | [3]; [19] | [4]; [38] | [4]; [21] | [9]; [27] | [11]; pH 6.8, nutrient agar | [12]; [29] | [13]; [44] | [16]; [35] | [16]; [36]

N#CSCSc1nsnc1-c1cccnc1 [Example XXXI, 4-(3-Pyridyl)-3-thiocyanatomethylthio-1,2,5-thiadiazole]
> 500 µg/mL: [1]; [17] | [3]; [20] | [9]; [28] | [11]; pH 8.2, nutrient agar | [12]; [30] | [13]; [31]
500 µg/mL: [1]; [18] | [3]; [19] | [4]; [38] | [9]; [27] | [11]; pH 6.8, nutrient agar | [12]; [29] | [13]; [44]
100 µg/mL: [16]; [36]
50 µg/mL: [5]; [23] | [15]; [34] | [16]; [47]
250 µg/mL: [4]; [46]
25 µg/mL: [5]; [22] | [6]; [24] | [7]; [41] | [8]; [26]
9 µg/mL: [2]; [37] | [10]; [43] | [14]; [45]

N#CSc1nsnc1-c1ccc([N+](=O)[O-])cc1 [Example XIII, 4-(4-nitrophenyl)-3-thiocyanato-1,2,5-thiadiazole]
25 µg/mL: [5]; [23]
500 µg/mL: [3]; [19] | [4]; [38] | [9]; [27] | [11]; pH 6.8, nutrient agar | [12]; [29] | [13]; [44]
100 µg/mL: [1]; [18]
> 100 µg/mL: [1]; pH 8.2, nutrient agar, 30° C., 48 hours, read-out: Minimum Inhibitory Concentration, Kp | [3]; pH 8.2, nutrient agar, 30° C., 48 hours, read-out: Minimum Inhibitory Concentration, PRD | [4]; [46] | [5]; [39] | [9]; pH 8.2, nutrient agar, 30° C., 48 hours, read-out: Minimum Inhibitory Concentration, Pv | [11]; pH 8.2, nutrient agar | [12]; pH 8.2, nutrient agar, 30° C., 48 hours, read-out: Minimum Inhibitory Concentration, Ea | [13]; [48] | [16]; [47]
50 µg/mL: [16]; 48 h, pH 6.8, read-out: Minimum Inhibitory Concentration, Sa
< 10 µg/mL: [2]; [37] | [6]; [40] | [7]; [25] | [8]; [42] | [10]; [43] | [14]; [33] | [15]; [34]

Cc1ccc(-c2nsnc2SCSC#N)cc1 [Example XXVII, 4-(4-Methylphenyl)-3-thiocyanatomethylthio-1,2,5-thiadiazole]
250 µg/mL: [3]; pH 6.8, nutrient agar, 30° C., 48 hours, read-out: Minimum Inhibitory Concentration, PRD | [13]; [48] | [16]; [36]
500 µg/mL: [1]; [17] | [1]; [18] | [3]; [20] | [4]; [38] | [4]; [21] | [9]; [27] | [9]; [28] | [11]; pH 6.8, nutrient agar | [11]; pH 8.2, nutrient agar | [12]; [29] | [12]; [30] | [13]; [44]
50 µg/mL: [7]; [41]
9 µg/mL: [2]; [37] | [6]; [40] | [10]; [43] | [14]; [45]
25 µg/mL: [5]; [22] | [5]; [23] | [8]; [26] | [16]; [47]
100 µg/mL: [15]; [34]

N#CSCSc1nsnc1-c1ccc(Br)cc1 [Example XVII, 4-(4-Bromophenyl)-3-thiocyanatomethylthio-1,2,5-thiadiazole]
9 µg/mL: [2]; [37] | [5]; [23] | [10]; [43] | [14]; [45]
25 µg/mL: [5]; [22] | [6]; [24]
> 500 µg/mL: [1]; [17] | [1]; [18] | [3]; [19] | [3]; [20] | [4]; [38] | [4]; [21] | [9]; [27] | [9]; [28] | [11]; pH 6.8, nutrient agar | [11]; pH 8.2, nutrient agar | [12]; [29] | [12]; [30] | [13]; [44] | [13]; [31] | [16]; [35] | [16]; [36]
500 µg/mL: [7]; [25] | [15]; pH 5.5, malt yeast agar, 30° C., 72 hours for fungi, read-out: Minimum Inhibitory Concentration, Tv
250 µg/mL: [8]; [42]
